Consider twelve compounds from patent US5141930A, “Fused thiophene compounds and uses thereof” (Yoshitomi Pharmaceutical Industries, Ltd., priority 1990, dated 1992).

One assay concerns Wistar rats. In words: Anxiolytic effect (Vogel type conflict test). The following applies: Rattus norvegicus, po; orally 1 hour before test; lowest dose significantly different from 0.5% MC control, P<0.05; read-out: Anxiolytic effect MED (minimum effective dose). Format: in vivo. The procedure:
Anxiolytic effect (Vogel type conflict test) The test was conducted according to the method of Vogel et al. Wistar rats deprived of water for 72 hours before the test were used. The rats were placed in a plexiglas conflict test box (light compartment: 38×38×20 cm, dark compartment: 10×10×20 cm). A water bottle with a stainless steel spout was fitted to the middle of the outside, so that the spout extended 3 cm into the box at a height of 10 cm above the grid floor. A drinkometer circuit (Ohara Inc., Nihon Koden) was connected with the spout and the number of licks were counted. The rat was placed into the apparatus where an electric shock (0.2-0.3 mA, 0.3 sec) was given once every 20th lick. After the rat received first electric shock, the number of shocks were recorded during the subsequent 3 min. test period. The test compounds were administered orally 1 hour before the test. The minimum effective dose (MED) was defined as the lowest dose producing a statistically significant difference between 0.5% MC-treated (control) and test drug treated punished responses (One-way ANOVA test; P<0.05).

The target in assay [1] is T1, serotonin 2 (5-HT2) receptor (Rattus norvegicus, UniProt P14842).
T1 construct: Freezed cerebral cortex dissected out from rats were homogenized; from tissue; host or cells: rat cerebral cortex, crude synaptosome fraction
T1 sequence (P14842 whole entry): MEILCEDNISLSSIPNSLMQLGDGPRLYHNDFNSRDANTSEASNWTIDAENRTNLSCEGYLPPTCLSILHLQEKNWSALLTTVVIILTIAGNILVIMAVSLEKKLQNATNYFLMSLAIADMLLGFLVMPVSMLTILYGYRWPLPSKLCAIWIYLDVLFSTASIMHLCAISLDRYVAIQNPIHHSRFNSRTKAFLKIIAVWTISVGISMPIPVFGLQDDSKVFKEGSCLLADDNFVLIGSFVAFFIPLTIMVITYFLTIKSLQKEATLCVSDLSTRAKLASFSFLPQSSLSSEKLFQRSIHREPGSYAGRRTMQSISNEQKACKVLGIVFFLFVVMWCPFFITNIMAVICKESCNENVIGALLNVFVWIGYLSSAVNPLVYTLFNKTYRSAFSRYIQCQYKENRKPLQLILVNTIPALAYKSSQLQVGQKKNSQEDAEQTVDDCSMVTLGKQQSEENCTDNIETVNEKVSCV
Description: Affinity for serotonin 2 (5-HT2) receptor, 3H-Ketanserin binding test. The following applies: rat cerebral cortex, 0.2 nM 3H-Ketanserin, pH 7.7, 37° C., 20 min. The procedure:
Affinity for serotonin 2 (5-HT2) receptor (^3 H-Ketanserin binding test)
Preparation of crude synaptosome fraction and binding assay were conducted according to the method reported in Molecular Pharmacology, vol. 21, page 301, 1981 by Leysen et al.
Freezed cerebral cortex dissected out from rats were homogenized in 30 volumes of ice-cold 0.32 M sucrose solution and the suspension was centrifuged at 1000×g for 10 minutes at 10° C. The supernatant was centrifuged at 40,000×g for 20 minutes at 0° C. and the resulting pellet was homogenized in 30 volumes of ice-cold 50 mM Tris-HCl buffer (pH 7.7), and incubated at 37° C. for 10 minutes. The suspension was centrifuged at 40,000×g for 20 minutes at 0° C. again. The resulting pellet was homogenized in 100 volumes of the above buffer and provided as synaptosome membranes solution for the next assay.
To the aliquots (900 μl) of synaptosome membranes solution were added 50 μl of ^3 H-Ketanserin solution at the terminal concentration of 0.2 nM and 50 μl of test compound solution or 50 μl of its medium, and incubated at 37° C. for 20 minutes. After completion of the reaction, the mixture was rapidly vacuum-filtered through Whatman GF/B filters. The filters were washed three times with 5 ml of the above buffer, and then the radioactivity of the residue remaining on the filters was measured by liquid scintillation counter. Nonspecific binding was determined under the presence of 10 μM of mianserin. 50% Inhibition concentration (IC50) of the test compound was graphically determined and the inhibition constant (Ki value) was calculated.

Assay [2] has as its target T2, serotonin 1A (5-HT1A) receptor (Rattus norvegicus, UniProt P19327).
T2 sequence (P19327 1-422): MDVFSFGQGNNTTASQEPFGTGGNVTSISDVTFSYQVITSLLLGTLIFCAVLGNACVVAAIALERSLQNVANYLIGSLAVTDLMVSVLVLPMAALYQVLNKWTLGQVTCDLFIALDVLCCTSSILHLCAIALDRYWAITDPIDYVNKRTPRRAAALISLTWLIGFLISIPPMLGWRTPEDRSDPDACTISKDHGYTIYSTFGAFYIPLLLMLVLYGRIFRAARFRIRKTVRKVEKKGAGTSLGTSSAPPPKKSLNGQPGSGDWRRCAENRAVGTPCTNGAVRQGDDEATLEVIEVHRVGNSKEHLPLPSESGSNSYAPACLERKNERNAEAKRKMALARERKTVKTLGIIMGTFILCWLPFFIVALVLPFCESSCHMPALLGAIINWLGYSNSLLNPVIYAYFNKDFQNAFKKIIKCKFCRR
In words: Affinity for serotonin 1A (5-HT1A) receptor, 3H-8-OH-DPAT binding test. Particulars: rat hippocampus, 0.2 nM 3H-8-OH-DPAT, pH 7.4, 37° C., 10 min. On the procedure: Affinity for serotonin 1A (5-HT1A) receptor [^3 H-8-Hydroxy-2-dipropylaminotetralin (^3 H-8-OH-DPAT) binding test]
Preparation of crude synaptosome fraction and binding assay were conducted in accordance with the method reported in Journal of Neurochemistry, vol. 44, page 1685, 1985 by Hall et al. Freezed hippocampus dissected out from rats were homogenized in 40 volumes of ice-cold 50 mM Tris-HCl buffer (pH 7.4) and the suspension was centrifuged at 500×g for 10 minutes at 0° C. The supernatant was centrifuged at 40,000×g for 20 minutes at 0° C. and the resulting pellet was homogenized in 40 volumes of the above buffer and incubated at 37° C. for 10 minutes. After completion of reaction, the suspension was centrifuged at 40,000×g for 20 minutes at 0° C. The resulting pellet was washed twice by resuspension in 40 volumes of the above buffer and centrifugation, and finally suspended in 60 volumes of ice-cold 50 mM Tris-HCl buffer (pH 7.4) containing 1 mM manganese chloride for use in the next assay.
To the aliquots (900 μl) of synaptosome membranes solution were added 50 μl of tritiated 8-OH-DPAT solution at the terminal concentration of 0.2 nM and 50 μl of test compound solution or 50 μl of its medium, and incubated at 37° C. for 10 minutes. Then, to the mixture was added 5 ml of ice-cold 50 mM Tris-HCl buffer (pH 7.4), rapidly vacuum-filtered through Whatman GF/B filters and washed twice with 5 ml of the same buffer. The radioactivity of the residue remaining on the filters was measured by liquid scintillation counter. Nonspecific binding was determined under the presence of 10^-5 M serotonin (5-HT). 50% Inhibition concentration (IC50) of the test compound was graphically determined and the inhibition constant (Ki value) was calculated.

A further assay addresses dopamine 2 (D2) receptor (Rattus norvegicus, UniProt P61169). In words: Affinity for dopamine 2 (D2) receptor, 3H-Spiperone binding test. Particulars: rat corpus striatum, 0.2 nM 3H-Spiperone, pH 7.1, 37° C., 20 min.
Assay [3] concerns serotonin 1A receptor of medulla oblongata. Particulars: through serotonin 1A receptor of medulla oblongata; cited from earlier work.
The test system of assay [4] is serotonin 1A receptor. The following applies: background statement; cited from earlier work.
The test system of a further assay is benzodiazepine receptor. The following applies: background statement; cited from earlier work.
Assay [5] has as its system serotonin 1A receptor. The following applies: by an interaction with serotonin 1A receptor; cited from earlier work.

Each structure is given as a SMILES string. Counter-ions that a name gives are not always drawn.

Chain of dopamine 2 (D2) receptor (P61169 whole entry): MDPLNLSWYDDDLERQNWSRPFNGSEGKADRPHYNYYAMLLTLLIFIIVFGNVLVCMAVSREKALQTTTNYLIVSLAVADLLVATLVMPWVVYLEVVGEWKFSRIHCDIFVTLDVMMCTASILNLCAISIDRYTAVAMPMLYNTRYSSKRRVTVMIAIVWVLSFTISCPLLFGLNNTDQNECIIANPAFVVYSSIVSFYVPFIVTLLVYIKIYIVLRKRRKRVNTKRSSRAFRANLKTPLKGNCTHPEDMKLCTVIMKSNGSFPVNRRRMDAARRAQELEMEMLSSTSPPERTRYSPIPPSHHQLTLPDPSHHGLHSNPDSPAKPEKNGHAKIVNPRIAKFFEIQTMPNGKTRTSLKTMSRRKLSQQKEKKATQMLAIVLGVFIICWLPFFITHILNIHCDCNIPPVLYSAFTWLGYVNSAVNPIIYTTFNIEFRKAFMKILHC

As a reminder, the Ki is the equilibrium dissociation constant of an inhibitor or competing ligand from its target. Low values mean higher affinity, high ones lower affinity. `CC(=O)c1cc2c(s1)CCCN(CCCCN1CCN(c3ncccn3)CC1)C2=O` [13 (maleate)]: the minimal effective dose with Wistar rats was found to be 1 mg/kg. Further, the Ki worked out at 1400 nM in assay [1], 1.6 nM in assay [2] and 190 nM on dopamine 2 (D2) receptor.

As to `CCCN(CCC)C1CCc2cccc(O)c2C1` (centres unmarked) [8-hydroxy-2-dipropylaminotetralin], the “effect on blood pressure” value in assay [3] is “lowers blood pressure”. In addition, in the assay on serotonin 1A receptor [4], the “affinity for serotonin 1A receptor” value is “high affinity”.

`Cc1cc2c(s1)CCCN(CCCCNCC1COc3ccccc3O1)C2=O.Cl` (centres unmarked) [Example 163, 5-[4-((1,4-Benzodioxan-2-yl)methylamino)butyl]-2-methyl-5,6,7,8-tetrahydro-4H-thieno[3,2-c]azepin-4-one hydrochloride]: the minimal effective dose in the assay on Wistar rats turned out to be 2.5 mg/kg. Besides, the inhibition constant Ki in assay [1] is 1200 nM; in assay [2] it was 0.15 nM; on dopamine 2 (D2) receptor it was 6.2 nM.

Take `O=C1c2cc(Br)sc2CCCN1CCCCN1CCN(c2ncccn2)CC1` [Example 11, 2-Bromo-5-[4-(4-(2-pyrimidinyl)-1l-piperazinyl)butyl]-5,6,7,8-tetrahydro-4H-thieno[3,2-c]azepin-4-one fumarate]: the results for the Ki (in assay [1]; in assay [2]; on dopamine 2 (D2) receptor) were 900 nM, 0.89 nM and 100 nM, respectively.

As for `O=C1c2cc(Br)sc2SCCN1CCCCN1CCN(c2ncccn2)CC1` [Example 107, 7-bromo-2,3-dihydro-4-[4-(4-(2-pyrimidinyl)-1-piperazinyl)butyl]thieno[3,2-f]-1,4-thiazepin-5(4H)-one fumarate 1/2 hydrate], the inhibition constant Ki in assay [1] turned out to be 990 nM; in assay [2], 1.5 nM; on dopamine 2 (D2) receptor it was 120 nM.

Regarding `Cc1cc2c(s1)CCCN(CCCCN1CCN(c3ncccn3)CC1)C2=O` [15 (hydrochloride)], the minimal effective dose in the assay with Wistar rats worked out at 2.5 mg/kg. For the same compound, the Ki was found to be 1500 nM in assay [1], 2.1 nM in assay [2] and 140 nM at dopamine 2 (D2) receptor.

Take `CC(=O)c1cc2c(s1)SCCN(CCCCN1CCN(c3ncccn3)CC1)C2=O` [Example 117, 7-acetyl-2,3-dihydro-4-[4-(4-(2-pyrimidinyl)-1-piperazinyl)butyl]thieno[3,2-f]-1,4-thiazepin-5(4H)-one]: the minimal effective dose with Wistar rats was 5 mg/kg. The Ki in assay [1] is 1800 nM; in assay [2] it was 4.1 nM; at dopamine 2 (D2) receptor, 270 nM.

Turning to `CCc1cc2c(s1)SCCN(CCCCN1CCN(c3ncccn3)CC1)C2=O` [Example 121, 7-ethyl-2,3-dihydro-4-[4-(4-(2-pyrimidinyl)-1-piperazinyl)thieno[3,2-f]-1,4-thiazepin-5(4H)-one hydrochloride 3/2 hydrate], the Ki in assay [1] came to 1100 nM; in assay [2], 1.4 nM; on dopamine 2 (D2) receptor it was 150 nM.

On to `CCc1cc2c(s1)CCCN(CCCCN1CCN(c3ncccn3)CC1)C2=O.O=C(O)/C=C/C(=O)O` [Example 46, 2-ethyl-5-[4-(4-(2-pyrimidinyl)-1-piperazinyl)butyl]-5,6,7,8-tetrahydro-4H-thieno[3,2-c]azepin-4-one fumarate], for which the minimal effective dose with Wistar rats is no more than 1 mg/kg. The Ki in assay [1] turned out to be 990 nM; in assay [2], 1.3 nM; on dopamine 2 (D2) receptor, 78 nM.

As for `O=C1CC2(CCCC2)CC(=O)N1CCCCN1CCN(c2ncccn2)CC1` [buspirone], the “affinity for serotonin 1A receptor” value in the assay with serotonin 1A receptor [4] is given as “high affinity”. Moreover, the “binding to benzodiazepine receptor” value in the assay with benzodiazepine receptor was “not to bind”. For the same compound, the antianxietic action result in the assay on serotonin 1A receptor [5] was “exhibits antianxietic action”.

In the case of `CC(O)c1cc2c(s1)CCCN(CCCCN1CCN(c3ncccn3)CC1)C2=O.O=C(O)/C=C\C(=O)O` (centres unmarked) [Example 155, 2-(1-Hydroxyethyl)-5-[4-(4-(2-pyrimidinyl)-1-piperazinyl)butyl]-5,6,7,8-tetrahydro-4H-thieno[3,2-c]azepin-4-one maleate], the minimal effective dose with Wistar rats worked out at 2.5 mg/kg. The figures for the inhibition constant Ki (in assay [1]; in assay [2]; on dopamine 2 (D2) receptor) were 2100 nM, 0.81 nM and 170 nM, respectively.

As to `O=C1c2ccsc2SCCN1CCCCN1CCN(c2ncccn2)CC1` [Example 103, 2,3-dihydro-4-[4-(4-(2-pyrimidinyl)-1-piperazinyl)butyl]thieno[3,2-f]-1,4-thiazepin-5( (4H)-one fumarate], the values for the inhibitory constant (Ki) (in assay [1]; in assay [2]; on dopamine 2 (D2) receptor) were 1800 nM, 5.2 nM and 1800 nM, respectively.
